In patent publication US12195482B1 (Arcus Biosciences, Inc., priority 2022, dated 2025):

How the values were obtained:
recombinant human MER = target: T1, recombinant human MER (Homo sapiens, UniProt Q12866); test: Biochemical potency, HTRF KinEASE-TK kinase assay; conditions: 1 nM MER, 700 μM ATP
T1 construct: purchased Invitrogen
T1 sequence (Q12866 21-999): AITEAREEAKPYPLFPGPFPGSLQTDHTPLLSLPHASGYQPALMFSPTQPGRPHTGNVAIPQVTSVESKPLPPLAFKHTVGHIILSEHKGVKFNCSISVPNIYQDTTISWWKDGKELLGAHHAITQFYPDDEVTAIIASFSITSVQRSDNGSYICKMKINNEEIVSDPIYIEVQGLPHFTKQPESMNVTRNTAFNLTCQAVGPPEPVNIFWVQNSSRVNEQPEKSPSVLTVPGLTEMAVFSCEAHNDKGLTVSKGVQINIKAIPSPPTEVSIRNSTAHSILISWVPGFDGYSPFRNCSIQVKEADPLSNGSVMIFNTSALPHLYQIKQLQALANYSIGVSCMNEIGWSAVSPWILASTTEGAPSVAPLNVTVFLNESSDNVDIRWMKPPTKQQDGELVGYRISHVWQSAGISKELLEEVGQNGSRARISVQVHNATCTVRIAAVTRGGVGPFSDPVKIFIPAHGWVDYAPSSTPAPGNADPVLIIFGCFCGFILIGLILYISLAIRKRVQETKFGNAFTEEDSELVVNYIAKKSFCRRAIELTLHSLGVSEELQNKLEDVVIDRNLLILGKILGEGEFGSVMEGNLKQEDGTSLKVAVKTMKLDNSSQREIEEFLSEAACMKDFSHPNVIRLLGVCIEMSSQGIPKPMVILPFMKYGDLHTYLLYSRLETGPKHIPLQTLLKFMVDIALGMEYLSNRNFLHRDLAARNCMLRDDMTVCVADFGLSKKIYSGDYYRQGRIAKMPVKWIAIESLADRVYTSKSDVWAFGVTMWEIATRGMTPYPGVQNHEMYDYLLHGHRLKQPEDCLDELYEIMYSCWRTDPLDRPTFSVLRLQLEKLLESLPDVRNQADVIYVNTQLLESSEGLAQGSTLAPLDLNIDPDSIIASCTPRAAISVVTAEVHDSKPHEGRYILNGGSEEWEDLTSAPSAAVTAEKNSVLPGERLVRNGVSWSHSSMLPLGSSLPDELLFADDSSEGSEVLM
Summary of the method: (§1)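 Enzyme (AXL 5 nM; TYRO3 or MER 1 nM final) was preincubated with compound for 1 h at RT, then reacted for 2 h at RT with 800 nM biotinylated TK substrate and 700 µM ATP in HEPES pH 7.4, MgCl2, DTT, BSA, 1% DMSO. Percent activity came from the HTRF 665/620 ratio.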

recombinant human TYRO3 = target: T2, recombinant human TYRO3 (Homo sapiens, UniProt Q06418); test: Biochemical potency, HTRF KinEASE-TK kinase assay; conditions: 1 nM TYRO3, 700 μM ATP
T2 construct: purchased Invitrogen
T2 sequence (Q06418 41-890): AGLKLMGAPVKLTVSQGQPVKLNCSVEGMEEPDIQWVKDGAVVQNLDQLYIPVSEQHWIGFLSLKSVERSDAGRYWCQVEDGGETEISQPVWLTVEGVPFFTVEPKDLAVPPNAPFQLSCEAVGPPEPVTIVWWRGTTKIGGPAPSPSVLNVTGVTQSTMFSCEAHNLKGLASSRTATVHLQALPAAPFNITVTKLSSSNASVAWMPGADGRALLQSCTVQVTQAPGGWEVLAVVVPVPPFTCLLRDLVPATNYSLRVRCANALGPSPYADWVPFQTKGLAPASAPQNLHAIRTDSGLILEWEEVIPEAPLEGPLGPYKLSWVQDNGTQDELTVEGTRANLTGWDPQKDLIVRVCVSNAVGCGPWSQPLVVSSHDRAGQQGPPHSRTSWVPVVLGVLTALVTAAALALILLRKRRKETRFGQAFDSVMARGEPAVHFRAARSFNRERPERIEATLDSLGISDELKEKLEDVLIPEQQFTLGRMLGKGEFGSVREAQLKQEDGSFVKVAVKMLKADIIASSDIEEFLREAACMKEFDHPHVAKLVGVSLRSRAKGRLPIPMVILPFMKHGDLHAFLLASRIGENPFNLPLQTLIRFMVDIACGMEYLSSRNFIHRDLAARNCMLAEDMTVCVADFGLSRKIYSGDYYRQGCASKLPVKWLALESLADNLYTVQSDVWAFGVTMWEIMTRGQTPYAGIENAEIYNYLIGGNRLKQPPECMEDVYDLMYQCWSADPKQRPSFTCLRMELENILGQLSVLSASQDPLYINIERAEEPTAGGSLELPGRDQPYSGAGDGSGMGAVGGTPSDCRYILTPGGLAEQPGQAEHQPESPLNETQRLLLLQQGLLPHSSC
Summary of the method: as §1

SMILES	IC50 (recombinant human MER) [nM]	IC50 (recombinant human TYRO3) [nM]
c1cnc(-c2ccc(-c3c[nH]c4ncc(-c5ccc6c(c5)CC[C@@H](N5C7COCC5C7)CC6)cc34)cc2)c(C2CC2)c1 [Example 178, 6-[(7S)-2-{3-[4-(3-Cyclopropylpyridin-2-yl)phenyl]-1H-pyrrolo[2,3-b]pyridin-5-yl}-6,7,8,9-tetrahydro-5H-benzo[7]annulen-7-yl]-3-oxa-6-azabicyclo[3.1.1]heptane]	100 to 1000	100 to 1000
CS(=O)(=O)c1cccnc1-c1ccc(-c2c[nH]c3ncc(-c4ccc5c(c4)CC[C@@H](N4C6COCC4C6)CC5)cc23)cc1 [Example 102, 6-[(7S)-2-{3-[4-(3-Methanesulfonylpyridin-2-yl)phenyl]-1H-pyrrolo[2,3-b]pyridin-5-yl}-6,7,8,9-tetrahydro-5H-benzo[7]annulen-7-yl]-3-oxa-6-azabicyclo[3.1.1]heptane]	100 to 1000	< 100
CN(C)C(=O)c1cccc(-c2ccc(-c3n[nH]c4ncc(-c5ccc6c(c5)CC[C@@H](N5C7COCC5C7)CC6)cc34)cc2)n1 [Example 94, N,N-Dimethyl-6-(4-{5-[(7S)-7-{3-oxa-6-azabicyclo[3.1.1]heptan-6-yl}-6,7,8,9-tetrahydro-5H-benzo[7]annulen-2-yl]-2H-pyrazolo[3,4-b]pyridin-3-yl}phenyl)pyridine-2-carboxamide]	> 1000	> 1000
CO[C@H]1C[C@@H](N[C@H]2CCc3ccc(-c4cnc5[nH]nc(-c6ccc(-c7ncccc7C)cc6)c5c4)cc3CC2)C1 [Example 131, (7S)-2-{3-[4-(3-Methylpyridin-2-yl)phenyl]-1H-pyrazolo[3,4-b]pyridin-5-yl}-N-[cis-3-methoxycyclobutyl]-6,7,8,9-tetrahydro-5H-benzo[7]annulen-7-amine]	< 100	< 100
C[C@@H]1CCCN1[C@@]1(C)CCc2ccc(-c3cnc4[nH]cc(-c5ccc(-c6ccccn6)cc5)c4c3)cc2CC1 [Example 156, 2-(4-{5-[(7S)-7-Methyl-7-[(2R)-2-methylpyrrolidin-1-yl]-6,7,8,9-tetrahydro-5H-benzo[7]annulen-2-yl]-1H-pyrrolo[2,3-b]pyridin-3-yl}phenyl)pyridine]	100 to 1000	100 to 1000
Cc1cccnc1-c1ccc(-c2c[nH]c3ncc(-c4ccc5c(c4)CC[C@@H](N4CCCC4)CC5)cc23)cc1 [Example 173, 3-Methyl-2-(4-{5-[(7S)-7-(pyrrolidin-1-yl)-6,7,8,9-tetrahydro-5H-benzo[7]annulen-2-yl]-1H-pyrrolo[2,3-b]pyridin-3-yl}phenyl)pyridine]	< 100	< 100
Cc1cc(F)cnc1-c1ccc(-c2n[nH]c3ncc(-c4ccc5c(c4)CC[C@@H](N4C6COCC4C6)CC5)cc23)cc1 [Example 28, 6-[(7S)-3-[3-[4-(5-Fluoro-3-methylpyridin-2-yl)phenyl]-1H-pyrazolo[3,4-b]pyridin-5-yl]-6,7,8,9-tetrahydro-5H-benzo[7]annulen-7-yl]-3-oxa-6-azabicyclo[3.1.1]heptane]	100 to 1000	< 100
Cc1ccccc1-c1ccc(-c2c[nH]c3ncc(-c4ccc5c(c4)CC[C@@H](N4C6COCC4C6)CC5)cc23)nc1 [Example 97, 6-[(7S)-2-{3-[5-(2-Methylphenyl)pyridin-2-yl]-1H-pyrrolo[2,3-b]pyridin-5-yl}-6,7,8,9-tetrahydro-5H-benzo[7]annulen-7-yl]-3-oxa-6-azabicyclo[3.1.1]heptane]	> 1000	> 1000
Cc1cncnc1-c1ccc(-c2n[nH]c3ncc(-c4ccc5c(c4)CC[C@@H](N4C6COCC4C6)CC5)cc23)cc1 [Example 174, 6-[(7S)-2-{3-[4-(5-Methylpyrimidin-4-yl)phenyl]-1H-pyrazolo[3,4-b]pyridin-5-yl}-6,7,8,9-tetrahydro-5H-benzo[7]annulen-7-yl]-3-oxa-6-azabicyclo[3.1.1]heptane]	< 100	< 100
CN(C)C(=O)c1cccnc1-c1ccc(-c2c[nH]c3ncc(-c4ccc5c(c4)CC[C@@H](N4C6COCC4C6)CC5)cc23)cc1 [Example 165, N,N-Dimethyl-2-(4-{5-[(7S)-7-{3-oxa-6-azabicyclo[3.1.1]heptan-6-yl}-6,7,8,9-tetrahydro-5H-benzo[7]annulen-2-yl]-1H-pyrrolo[2,3-b]pyridin-3-yl}phenyl)pyridine-3-carboxamide]	100 to 1000	< 100
CN(C)C(=O)c1ccccc1-c1ccc(-c2c[nH]c3ncc(-c4ccc5c(c4)CC[C@@H](N4C6COCC4C6)CC5)cc23)cn1 [Example 170, N,N-Dimethyl-2-(5-{5-[(7S)-7-{3-oxa-6-azabicyclo[3.1.1]heptan-6-yl}-6,7,8,9-tetrahydro-5H-benzo[7]annulen-2-yl]-1H-pyrrolo[2,3-b]pyridin-3-yl}pyridin-2-yl)benzamide]	100 to 1000	100 to 1000
Cc1nccnc1-c1ccc(-c2n[nH]c3ncc(-c4ccc5c(c4)CC[C@@H](N4C6COCC4C6)CC5)cc23)cc1 [Example 175, 6-[(7S)-2-{3-[4-(3-Methylpyrazin-2-yl)phenyl]-1H-pyrazolo[3,4-b]pyridin-5-yl}-6,7,8,9-tetrahydro-5H-benzo[7]annulen-7-yl]-3-oxa-6-azabicyclo[3.1.1]heptane]	100 to 1000	100 to 1000
O=c1ccccn1-c1ccc(-c2n[nH]c3ncc(-c4ccc5c(c4)CC[C@@H](N4C6COCC4C6)CC5)cc23)cc1 [Example 31, 1-[4-[5-[(7S)-7-(3-Oxa-6-azabicyclo[3.1.1]heptan-6-yl)-6,7,8,9-tetrahydro-5H-benzo[7]annulen-3-yl]-1H-pyrazolo[3,4-b]pyridin-3-yl]phenyl]pyridin-2-one]	> 1000	> 1000
c1cnc(-c2ccc(-c3n[nH]c4ncc(-c5ccc6c(c5)CC[C@@H](N5C7COCC5C7)CC6)cc34)cc2)c(C2CC2)c1 [Example 179, 6-[(7S)-2-{3-[4-(3-Cyclopropylpyridin-2-yl)phenyl]-1H-pyrazolo[3,4-b]pyridin-5-yl}-6,7,8,9-tetrahydro-5H-benzo[7]annulen-7-yl]-3-oxa-6-azabicyclo[3.1.1]heptane]	100 to 1000	100 to 1000
O=C1CCCN1c1cccnc1-c1ccc(-c2c[nH]c3ncc(-c4ccc5c(c4)CC[C@@H](N4C6COCC4C6)CC5)cc23)cc1 [Example 7, 1-[2-(4-{5-[(7S)-7-{3-Oxa-6-azabicyclo[3.1.1]heptan-6-yl}-6,7,8,9-tetrahydro-5H-benzo[7]annulen-2-yl]-1H-pyrrolo[2,3-b]pyridin-3-yl}phenyl)pyridin-3-yl]pyrrolidin-2-one]	100 to 1000	< 100
COc1cccnc1-c1ccc(-c2c[nH]c3ncc(-c4ccc5c(c4)CC[C@@H](N4C6COCC4C6)CC5)cc23)cc1 [Example 164, 6-[(7S)-2-{3-[4-(3-Methoxypyridin-2-yl)phenyl]-1H-pyrrolo[2,3-b]pyridin-5-yl}-6,7,8,9-tetrahydro-5H-benzo[7]annulen-7-yl]-3-oxa-6-azabicyclo[3.1.1]heptane]	100 to 1000	< 100
